For assay [1], the system named is production of PGF2α in A549 cells. In words: Inhibition of PGF2α production in IL-1β-stimulated A549 cells (EIA), selectivity. It is filed as cell-based. Conditions: Homo sapiens; for inhibition at 10 µM: compound at 10 μm; for IC50: IL-1β-stimulated, read-out: pIC50 PGF2α (converted). The source says: (§1) The test used makes it possible to evaluate the inhibitory capacity of the test compounds on the production of PGE2 and the selectivity relative to the production of PGF2α. The human pulmonary adenocarcinoma cell line A549 was used, which is particularly sensitive to stimulation with proinflammatory cytokines, for instance IL-1β, and, in response to this stimulation, is particularly active in the production and release of two prostanoids: PGE2 and PGF2α (Thoren S. Jakobsson P-J, 2000).
(§2) The cells were stimulated with IL-1β (10 ng/ml) and simultaneously treated with the test compound for 22 hours in a suitable culture medium (DMEM—Dulbecco's Modified Eagles Medium) enriched with 5% fetal calf serum and L-glutamine (4 mM final) in an incubator at 37° C. and with a CO2 concentration of 5%.
(§3) At the end of the incubation, the amount of PGE2 and PGF2α, produced and released into the supernatant were assayed using an EIA kit (produced and sold by Cayman Chemicals, Ann Arbor, Mich., USA).
(§4) The comparative compound used was indomethacin at a concentration of 10 nM (Sigma-Aldrich), which is a non-steroidal anti-inflammatory drug that inhibits in equal measure both PGE2 and PGF2α.
(§5) For illustrative purposes, Table 3 collates the pIC50 values of a number of compounds of the invention, where pIC50 represents the negative logarithm of the IC50, which, in turn, represents the concentration of compound that inhibits the production of PGE2 or PGF2α by 50% relative to cells that are stimulated but not treated with the same compound.

The test system of assay [2] is production of PGE2 in A549 cells (mPGES-1). In words: Inhibition of PGE2 production in IL-1β-stimulated A549 cells (EIA). It is filed as cell-based. The conditions noted are these: Homo sapiens; for inhibition at 10 µM: compound at 10 μm; for IC50: IL-1β-stimulated, read-out: pIC50 PGE2 (converted).
Excerpt: as §1, §2, §3, §4, §5

For assay [3], the system named is production of PGE2 in U-937 cells (cPGES). In words: Inhibition of basal PGE2 production in U-937 cells (selectivity between isoforms of PGES). The format is cell-based. Conditions: Homo sapiens, basal conditions; for inhibition at 10 µM: compound at 10 μM. From the text: The test used makes it possible to evaluate the capacity of the compounds of the invention to inhibit the production of PGE2 in a human lymphoma cell line U-937 that preferentially expresses an enzymatic isoform (cPGES), which is responsible for the production of PGE2 under basal conditions, in the absence of pro-inflammatory stimuli. This enzymatic form is different from the one predominantly expressed in the A549 cells (mPGES-1) after a pro-inflammatory stimulus.
The absence of inhibitory activity on PGE2 in this cell model ensures the selectivity of the compound compared with the enzymatic form responsible for the production of PGE2 in the presence of inflammatory stimuli.
The reference compound used was indomethacin at a concentration of 10 nM.

In assay [4] the test system is acetic acid-induced stretching in mice. Description: Acetic acid-induced stretching in mice (inflammatory pain). It is filed as in vivo. The conditions noted are these: female CD-1 mice; for No. of stretches: 20 minutes after acetic acid, vehicle 52; for % inhibition (stretches): vs vehicle (MTC). The protocol:
The test compound was evaluated in the model of acetic acid-induced stretching in mice (Stock J. L. et al., J Clin Inv 2001, 107: 325-331). This test makes it possible to evaluate the antinociceptive activity of the compounds of the invention in a model of inflammatory pain.
Female CD-1 mice weighing 25-30 g were used for the test. The animals were treated intraperitoneally with the test compound (0.1-10 mg/kg) suspended in methylcellulose (MTC). The control animals were treated with the vehicle alone (MTC) via the same route.
30 minutes after the treatment, the animals received an intraperitoneal injection of acetic acid (0.7 v/v in physiological solution, 16 μl/g of body weight) in order to induce inflammatory pain and to check the effects of the test compound on the nociceptive response.
Immediately after the administration of acetic acid and for the following 20 minutes, the number of stretches, which represents the parameter for evaluation of the nociceptive response, was measured.

[5] abbreviates: indomethacin at 10 nM, IL-1β 10 ng/ml, 22 hours.

SMILES strings stand for the structures. Bounds are passed on as bounds.

The source of these data is patent US8017644B2, “2-arylindole derivatives as nPGES-1 inhibitors” (Aziende Chimiche Riunite Angelini Francesco A.C.R.A.F. …, priority 2006, dated 2011).

Turning to `Cn1c(-c2ccccc2)cc2cc(NC(=O)c3ccccc3Cl)ccc21` [Compound 1], the inhibition at 10 µM in assay [1] (IL-1β 10 ng/ml, 22 hours) is less than 20%; in assay [2] (IL-1β 10 ng/ml, 22 hours) it was 63%.

Regarding `CCn1c(-c2ccccc2)cc2cc(NC(=O)c3ccccc3Cl)ccc21` [Compound 2], the inhibition at 10 µM is less than 20% in assay [1] (IL-1β 10 ng/ml, 22 hours); less than 20% in assay [3]; 76% in assay [2] (IL-1β 10 ng/ml, 22 hours). For the same compound, the No. of stretches is on record as 38 in assay [4] (0.1 mg/kg intraperitoneally), 36 in assay [4] (1 mg/kg intraperitoneally) and 25 in assay [4] (10 mg/kg intraperitoneally). Moreover, the figures for the “% inhibition (stretches)” value in assay [4] (0.1 mg/kg intraperitoneally), in assay [4] (1 mg/kg intraperitoneally) and in assay [4] (10 mg/kg intraperitoneally) were 27%, 31% and 52%, respectively. The IC50 in assay [2] is 2000 nM.

Regarding `CC(C)n1c(-c2ccccc2)cc2cc(NC(=O)c3ccccc3Cl)ccc21` [Compound 3], the inhibition at 10 µM is 34% in assay [1] (IL-1β 10 ng/ml, 22 hours) and 91% in assay [2] (IL-1β 10 ng/ml, 22 hours).

As for `CCn1c(-c2ccccc2F)cc2cc(NC(=O)c3ccccc3Cl)ccc21` [Compound 4], the inhibition at 10 µM was less than 20% in assay [1] (IL-1β 10 ng/ml, 22 hours) and 72% in assay [2] (IL-1β 10 ng/ml, 22 hours).

Consider `CCn1c(-c2cccc(F)c2)cc2cc(NC(=O)c3ccccc3Cl)ccc21` [Compound 5], for which the inhibition at 10 µM is 36% in assay [1] (IL-1β 10 ng/ml, 22 hours) and 91% in assay [2] (IL-1β 10 ng/ml, 22 hours).

On to `CCn1c(-c2ccc(F)cc2)cc2cc(NC(=O)c3ccccc3Cl)ccc21` [Compound 6], for which the inhibition at 10 µM in assay [1] (IL-1β 10 ng/ml, 22 hours) was less than 20%; in assay [3] it was less than 20%; in assay [2] (IL-1β 10 ng/ml, 22 hours), 82%. Further, in assay [2], the IC50 was 1580 nM.

With `CCn1c(-c2ccccc2)c(C)c2cc(NC(=O)c3ccccc3Cl)ccc21` [Compound 7], the inhibition at 10 µM in assay [1] (IL-1β 10 ng/ml, 22 hours) worked out at 39%; in assay [2] (IL-1β 10 ng/ml, 22 hours) it was 90%.

Turning to `CCn1c(-c2ccccc2)cc2cc(NC(=O)c3ccccc3C(F)(F)F)ccc21` [Compound 9], the IC50 in assay [1] was 50100 nM; in assay [2], 1260 nM. The inhibition at 10 µM was less than 20% in assay [1] (IL-1β 10 ng/ml, 22 hours); less than 20% in assay [3]; 100% in assay [2] (IL-1β 10 ng/ml, 22 hours).

As to `CCn1c(-c2ccccc2)cc2cc(NC(=O)c3c(Cl)cccc3Cl)ccc21` [Compound 10], the IC50 in assay [1] was greater than 100000 nM; in assay [2], 2000 nM. Moreover, the inhibition at 10 µM in assay [1] (IL-1β 10 ng/ml, 22 hours) is less than 20%; in assay [3] it was 22%; in assay [2] (IL-1β 10 ng/ml, 22 hours), 76%.

With `CCn1c(-c2ccccc2)cc2cc(NC(=O)c3cc([N+](=O)[O-])ccc3Cl)ccc21` [Compound 12], the inhibition at 10 µM in assay [1] (IL-1β 10 ng/ml, 22 hours) was less than 20%; in assay [2] (IL-1β 10 ng/ml, 22 hours) it was 75%.

Consider `CCn1c(-c2ccccc2)cc2cc(NC(=O)c3cc(Cl)ccc3Cl)ccc21` [Compound 13], for which the inhibition at 10 µM in assay [1] (IL-1β 10 ng/ml, 22 hours) stood at 36%; in assay [3], 30%; in assay [2] (IL-1β 10 ng/ml, 22 hours), 100%. For the same compound, in assay [2], the IC50 was 794 nM.

With `CCn1c(-c2ccccc2)cc2cc(NC(=O)c3ccccc3[N+](=O)[O-])ccc21` [Compound 16], the inhibition at 10 µM in assay [1] (IL-1β 10 ng/ml, 22 hours) is less than 20%; in assay [2] (IL-1β 10 ng/ml, 22 hours), 74%.

Take `CCn1c(-c2ccccc2C)cc2cc(NC(=O)c3ccccc3Cl)ccc21` [Compound 18]: the inhibition at 10 µM in assay [1] (IL-1β 10 ng/ml, 22 hours) is less than 20%; in assay [3], less than 20%; in assay [2] (IL-1β 10 ng/ml, 22 hours) it was 66%. Moreover, in assay [2], the IC50 was 2510 nM.

Regarding `CCn1c(-c2cccc(C)c2)cc2cc(NC(=O)c3ccccc3Cl)ccc21` [Compound 19], the IC50 in assay [1] was 100000 nM; in assay [2], 1000 nM. For the same compound, the inhibition at 10 µM in assay [1] (IL-1β 10 ng/ml, 22 hours) was 43%; in assay [3] it was less than 20%; in assay [2] (IL-1β 10 ng/ml, 22 hours) it was 87%.

For `CCn1c(-c2ccc(C)cc2)cc2cc(NC(=O)c3ccccc3Cl)ccc21` [Compound 20], the IC50 in assay [1] is greater than 100000 nM; in assay [2] it was 3160 nM. Moreover, the inhibition at 10 µM was less than 20% in assay [1] (IL-1β 10 ng/ml, 22 hours); less than 20% in assay [3]; 75% in assay [2] (IL-1β 10 ng/ml, 22 hours).

For the compound `CCOc1ccc(-c2cc3cc(NC(=O)c4ccccc4Cl)ccc3n2CC)cc1` [Compound 21], the inhibition at 10 µM is less than 20% in assay [1] (IL-1β 10 ng/ml, 22 hours) and 66% in assay [2] (IL-1β 10 ng/ml, 22 hours).

Turning to `CCn1c(-c2ccc(OCc3ccccc3)cc2)cc2cc(NC(=O)c3ccccc3Cl)ccc21` [Compound 22], the inhibition at 10 µM in assay [1] (IL-1β 10 ng/ml, 22 hours) was less than 20%; in assay [2] (IL-1β 10 ng/ml, 22 hours), 79%.

For `CCn1c(-c2cccc3ccccc23)cc2cc(NC(=O)c3ccccc3Cl)ccc21` [Compound 24], the inhibition at 10 µM in assay [1] (IL-1β 10 ng/ml, 22 hours) was less than 20%; in assay [2] (IL-1β 10 ng/ml, 22 hours), 79%.

As to `CCn1c(-c2ccc(Cl)c(C)c2)cc2cc(NC(=O)c3ccccc3Cl)ccc21` [Compound 25], the inhibition at 10 µM in assay [1] (IL-1β 10 ng/ml, 22 hours) was less than 20%; in assay [2] (IL-1β 10 ng/ml, 22 hours) it was 89%.

For `CCn1c(-c2cccc(Cl)c2C)cc2cc(NC(=O)c3ccccc3Cl)ccc21` [Compound 28], the inhibition at 10 µM in assay [1] (IL-1β 10 ng/ml, 22 hours) is less than 20%; in assay [2] (IL-1β 10 ng/ml, 22 hours), 65%.

As to `CCn1c(-c2ccc(C)c(C)c2)cc2cc(NC(=O)c3ccccc3Cl)ccc21` [Compound 29], the inhibition at 10 µM in assay [1] (IL-1β 10 ng/ml, 22 hours) was less than 20%; in assay [2] (IL-1β 10 ng/ml, 22 hours) it was 91%.

Consider `CCn1c(-c2ccc(OC)cc2)cc2cc(NC(=O)c3ccccc3Cl)ccc21` [Compound 30], for which the inhibition at 10 µM was less than 20% in assay [1] (IL-1β 10 ng/ml, 22 hours) and 75% in assay [2] (IL-1β 10 ng/ml, 22 hours).

For the compound `COc1ccc2c(c1)c(CC(=O)O)c(C)n2C(=O)c1ccc(Cl)cc1` [Indomethacin, indomethacin, reference compound], the IC50 is 2.51 nM in assay [1] and 5.01 nM in assay [2]. For the same compound, the inhibition at 0.01 µM in assay [1] (setting [5]) is 100%; in assay [3] (indomethacin at 10 nM) it was 78%; in assay [2] (setting [5]), 100%.
